Test results from the NIST ThermoML archive (doi:10.1016/j.jct.2016.02.009).
Values joined by “and” are separate entries in the source; they are usually repeats but may differ in a detail not shown here. Identical values can stand only once. ± gives the expanded uncertainty stated by the source.

Test: molar heat capacity at constant pressure
Settings: 101.33 kPa, Small (less than 1 g) adiabatic calorimetry

CCCCCCCCCCn1cc[n+](C)c1.O=S(=O)([N-]S(=O)(=O)C(F)(F)F)C(F)(F)F
Settings	molar heat capacity at constant pressure
142.54 K, Metastable crystal	368.4 ± 1.9 J/K/mol
144.48 K, Crystal 2	358.2 ± 1.8 J/K/mol
144.48 K, Metastable crystal	372.5 ± 1.9 J/K/mol
146.41 K, Metastable crystal	376.6 ± 1.9 J/K/mol
146.45 K, Crystal 2	361.5 ± 1.9 J/K/mol
148.35 K, Metastable crystal	380.7 ± 2 J/K/mol
148.41 K, Crystal 2	365 ± 1.9 J/K/mol
150 K, Crystal 2	367.5 ± 1.9 J/K/mol
150 K, Metastable crystal	384.3 ± 1.9 J/K/mol
150.28 K, Metastable crystal	384.8 ± 2 J/K/mol
150.38 K, Crystal 2	368.2 ± 1.9 J/K/mol
152.21 K, Metastable crystal	389.1 ± 2 J/K/mol
152.35 K, Crystal 2	371.7 ± 1.9 J/K/mol
154.14 K, Metastable crystal	393.4 ± 2 J/K/mol
154.32 K, Crystal 2	375 ± 1.9 J/K/mol
155.25 K, Crystal 2	376.4 ± 1.9 J/K/mol
156.07 K, Metastable crystal	397.7 ± 2 J/K/mol
157.33 K, Crystal 2	380.2 ± 1.9 J/K/mol
157.99 K, Metastable crystal	402.2 ± 2.1 J/K/mol
159.29 K, Crystal 2	383.4 ± 2 J/K/mol
159.91 K, Metastable crystal	406.6 ± 2.1 J/K/mol
160 K, Crystal 2	384.7 ± 1.9 J/K/mol
160 K, Metastable crystal	406.8 ± 2.1 J/K/mol
161.26 K, Crystal 2	387 ± 2 J/K/mol
161.83 K, Metastable crystal	411 ± 2.1 J/K/mol
163.22 K, Crystal 2	390.1 ± 2 J/K/mol
163.75 K, Metastable crystal	415.7 ± 2.1 J/K/mol
165.19 K, Crystal 2	393.6 ± 2 J/K/mol
165.66 K, Metastable crystal	420.2 ± 2.1 J/K/mol
167.15 K, Crystal 2	397.2 ± 2 J/K/mol
167.56 K, Metastable crystal	425 ± 2.2 J/K/mol
169.11 K, Crystal 2	400.7 ± 2 J/K/mol
169.47 K, Metastable crystal	429.9 ± 2.2 J/K/mol
170 K, Crystal 2	402.3 ± 2 J/K/mol
170 K, Metastable crystal	431.2 ± 2.2 J/K/mol
171.07 K, Crystal 2	404.1 ± 2.1 J/K/mol
171.37 K, Metastable crystal	434.6 ± 2.2 J/K/mol
173.03 K, Crystal 2	407.6 ± 2.1 J/K/mol
173.27 K, Metastable crystal	440 ± 2.2 J/K/mol
174.98 K, Crystal 2	411.2 ± 2.1 J/K/mol
175.16 K, Metastable crystal	445.5 ± 2.3 J/K/mol
176.93 K, Crystal 2	414.8 ± 2.1 J/K/mol
177.04 K, Metastable crystal	451.4 ± 2.3 J/K/mol
178.88 K, Crystal 2	418.4 ± 2.1 J/K/mol
178.92 K, Metastable crystal	458.1 ± 2.3 J/K/mol
180 K, Crystal 2	420.7 ± 2.2 J/K/mol
180 K, Metastable crystal	462.6 ± 2.4 J/K/mol
180.78 K, Metastable crystal	466 ± 2.4 J/K/mol
180.83 K, Crystal 2	422.1 ± 2.2 J/K/mol
182.64 K, Metastable crystal	476.8 ± 2.4 J/K/mol
182.78 K, Crystal 2	426 ± 2.2 J/K/mol
184.47 K, Metastable crystal	489.9 ± 2.5 J/K/mol
184.72 K, Crystal 2	430 ± 2.2 J/K/mol
186.29 K, Metastable crystal	501.9 ± 2.5 J/K/mol
186.66 K, Crystal 2	434 ± 2.2 J/K/mol
188.1 K, Metastable crystal	507.1 ± 2.6 J/K/mol
188.59 K, Crystal 2	438.2 ± 2.2 J/K/mol
189.9 K, Metastable crystal	510.3 ± 2.6 J/K/mol
190 K, Crystal 2	440.9 ± 2.3 J/K/mol
190 K, Metastable crystal	510.3 ± 2.6 J/K/mol
190.52 K, Crystal 2	442.2 ± 2.3 J/K/mol
191.71 K, Metastable crystal	511.1 ± 2.6 J/K/mol
192.45 K, Crystal 2	446.2 ± 2.3 J/K/mol
193.51 K, Metastable crystal	514.8 ± 2.6 J/K/mol
194.38 K, Crystal 2	450.4 ± 2.3 J/K/mol
195.31 K, Metastable crystal	521.6 ± 2.6 J/K/mol
196.3 K, Crystal 2	455.3 ± 2.3 J/K/mol
197.11 K, Metastable crystal	529.9 ± 2.7 J/K/mol
198.22 K, Crystal 2	460.2 ± 2.3 J/K/mol
198.89 K, Metastable crystal	539.6 ± 2.7 J/K/mol
200 K, Crystal 2	463.2 ± 2.4 J/K/mol
200 K, Metastable crystal	546.2 ± 2.8 J/K/mol
200.13 K, Crystal 2	465.1 ± 2.4 J/K/mol
200.65 K, Metastable crystal	550 ± 2.8 J/K/mol
202.1 K, Crystal 2	470.5 ± 2.4 J/K/mol
202.46 K, Metastable crystal	568.9 ± 2.9 J/K/mol
204.12 K, Crystal 2	476.2 ± 2.4 J/K/mol
204.28 K, Metastable crystal	599.4 ± 3.1 J/K/mol
206.02 K, Metastable crystal	683.4 ± 3.6 J/K/mol
206.13 K, Crystal 2	482 ± 2.4 J/K/mol
207.65 K, Metastable crystal	752.9 ± 3.9 J/K/mol
208.14 K, Crystal 2	487.2 ± 2.5 J/K/mol
209.38 K, Metastable crystal	552.2 ± 3.1 J/K/mol
210 K, Crystal 2	489.1 ± 2.5 J/K/mol
210 K, Metastable crystal	513 ± 2.6 J/K/mol
210.15 K, Crystal 2	491.5 ± 2.5 J/K/mol
211.31 K, Metastable crystal	512.9 ± 2.6 J/K/mol
212.15 K, Crystal 2	495.6 ± 2.5 J/K/mol
213.27 K, Metastable crystal	512 ± 2.6 J/K/mol
214.15 K, Crystal 2	500.9 ± 2.5 J/K/mol
215.24 K, Metastable crystal	515.4 ± 2.6 J/K/mol
216.13 K, Crystal 2	507 ± 2.6 J/K/mol
217.2 K, Metastable crystal	523.2 ± 2.7 J/K/mol
218.12 K, Crystal 2	513.6 ± 2.6 J/K/mol
219.17 K, Metastable crystal	551.8 ± 3.2 J/K/mol
220 K, Crystal 2	519.8 ± 2.6 J/K/mol
220.09 K, Crystal 2	520.6 ± 2.6 J/K/mol
221.12 K, Metastable crystal	812.2 ± 4.9 J/K/mol
222.05 K, Crystal 2	528.2 ± 2.7 J/K/mol
224 K, Crystal 2	536.2 ± 2.7 J/K/mol
225.95 K, Crystal 2	545.3 ± 2.8 J/K/mol
227.87 K, Crystal 2	555.4 ± 2.8 J/K/mol
229.79 K, Crystal 2	567 ± 2.9 J/K/mol
230 K, Crystal 2	569.2 ± 2.9 J/K/mol
231.68 K, Crystal 2	580.6 ± 2.9 J/K/mol
233.56 K, Crystal 2	594.7 ± 3 J/K/mol
235.42 K, Crystal 2	610.3 ± 3.1 J/K/mol
237.26 K, Crystal 2	624.9 ± 3.2 J/K/mol
239.07 K, Crystal 2	641 ± 3.2 J/K/mol
240 K, Crystal 2	651.3 ± 3.3 J/K/mol
240.86 K, Crystal 2	665.1 ± 3.4 J/K/mol
242.62 K, Crystal 2	694.9 ± 3.5 J/K/mol
244.33 K, Crystal 2	733.6 ± 3.7 J/K/mol
245.99 K, Crystal 2	789 ± 4.1 J/K/mol
247.56 K, Crystal 2	885.2 ± 4.6 J/K/mol
249 K, Crystal 1	1053 ± 6 J/K/mol
249 K, Crystal 2	1053 ± 5 J/K/mol
249.01 K, Crystal 1	1053 ± 7 J/K/mol
250.61 K, Crystal 1	627.9 ± 4 J/K/mol
252 K, Crystal 1	619.2 ± 3.2 J/K/mol
252.45 K, Crystal 1	620.8 ± 3.1 J/K/mol
254.29 K, Crystal 1	629.9 ± 3.2 J/K/mol
256.12 K, Crystal 1	642.5 ± 3.2 J/K/mol
257.94 K, Crystal 1	658.6 ± 3.3 J/K/mol
259.72 K, Crystal 1	680.3 ± 3.4 J/K/mol
260 K, Crystal 1	648.7 ± 3.3 J/K/mol
261.48 K, Crystal 1	710 ± 3.6 J/K/mol
263.19 K, Crystal 1	751.8 ± 3.8 J/K/mol
263.96 K, Liquid	730.6 ± 3.7 J/K/mol
264.85 K, Crystal 1	795.1 ± 4 J/K/mol
265.87 K, Liquid	731.7 ± 3.7 J/K/mol
266.46 K, Crystal 1	822.8 ± 4.1 J/K/mol
267.69 K, Liquid	733 ± 3.7 J/K/mol
268.04 K, Crystal 1	872.1 ± 4.5 J/K/mol
269.51 K, Liquid	734.3 ± 3.7 J/K/mol
269.56 K, Crystal 1	972.8 ± 5 J/K/mol
270 K, Crystal 1	687.6 ± 3.5 J/K/mol
271.33 K, Liquid	735.9 ± 3.7 J/K/mol
273.16 K, Liquid	736.9 ± 3.7 J/K/mol
274.98 K, Liquid	738.2 ± 3.7 J/K/mol
276.81 K, Liquid	739.4 ± 3.7 J/K/mol
277.33 K, Crystal 1	717.5 ± 3.6 J/K/mol
277.33 K, Liquid	739.7 ± 3.7 J/K/mol
278.63 K, Liquid	740.6 ± 3.7 J/K/mol
278.84 K, Liquid	741.1 ± 3.7 J/K/mol
280 K, Liquid	741.6 ± 3.7 J/K/mol
280.45 K, Liquid	741.8 ± 3.7 J/K/mol
280.56 K, Liquid	742.3 ± 3.7 J/K/mol
282.28 K, Liquid	743.2 ± 3.7 J/K/mol and 742.8 ± 3.7 J/K/mol
284 K, Liquid	744.4 ± 3.7 J/K/mol
284.1 K, Liquid	744.5 ± 3.7 J/K/mol
285.72 K, Liquid	745.6 ± 3.7 J/K/mol
285.92 K, Liquid	745.7 ± 3.7 J/K/mol
287.44 K, Liquid	747.1 ± 3.7 J/K/mol
287.75 K, Liquid	746.9 ± 3.7 J/K/mol
289.16 K, Liquid	747.9 ± 3.7 J/K/mol
289.57 K, Liquid	748.4 ± 3.8 J/K/mol
290 K, Liquid	748.8 ± 3.8 J/K/mol
290.88 K, Liquid	749.4 ± 3.8 J/K/mol
291.4 K, Liquid	749.8 ± 3.8 J/K/mol
292.6 K, Liquid	750.6 ± 3.8 J/K/mol
293.22 K, Liquid	750.8 ± 3.8 J/K/mol
294.32 K, Liquid	751.9 ± 3.8 J/K/mol
295.05 K, Liquid	752.4 ± 3.8 J/K/mol
296.04 K, Liquid	753.2 ± 3.8 J/K/mol
296.87 K, Liquid	753.9 ± 3.8 J/K/mol
297.77 K, Liquid	754.3 ± 3.8 J/K/mol
298.15 K, Liquid	754.8 ± 3.8 J/K/mol
298.69 K, Liquid	755.1 ± 3.8 J/K/mol
299.49 K, Liquid	755.7 ± 3.8 J/K/mol
300 K, Liquid	756.2 ± 3.8 J/K/mol
301.26 K, Liquid	757.2 ± 3.8 J/K/mol
303.08 K, Liquid	758.7 ± 3.8 J/K/mol
304.91 K, Liquid	759.9 ± 3.8 J/K/mol
306.73 K, Liquid	761.3 ± 3.8 J/K/mol
308.56 K, Liquid	762.8 ± 3.8 J/K/mol
310 K, Liquid	763.8 ± 3.9 J/K/mol
310.38 K, Liquid	764.3 ± 3.8 J/K/mol
312.21 K, Liquid	765.5 ± 3.8 J/K/mol
314.03 K, Liquid	766.8 ± 3.8 J/K/mol
315.86 K, Liquid	768.4 ± 3.8 J/K/mol
317.69 K, Liquid	769.8 ± 3.9 J/K/mol
319.51 K, Liquid	771.1 ± 3.9 J/K/mol
320 K, Liquid	771.5 ± 3.9 J/K/mol
321.34 K, Liquid	772.8 ± 3.9 J/K/mol
323.17 K, Liquid	774.3 ± 3.9 J/K/mol
324.99 K, Liquid	775.7 ± 3.9 J/K/mol
326.82 K, Liquid	777.2 ± 3.9 J/K/mol
328.64 K, Liquid	778.5 ± 3.9 J/K/mol
330 K, Liquid	779.5 ± 3.9 J/K/mol
330.47 K, Liquid	779.9 ± 3.9 J/K/mol
332.29 K, Liquid	781.6 ± 3.9 J/K/mol
334.12 K, Liquid	783.1 ± 3.9 J/K/mol
335.95 K, Liquid	784.6 ± 3.9 J/K/mol
337.77 K, Liquid	786 ± 3.9 J/K/mol
339.6 K, Liquid	787.5 ± 3.9 J/K/mol
340 K, Liquid	787.7 ± 4 J/K/mol
341.42 K, Liquid	788.9 ± 3.9 J/K/mol
343.25 K, Liquid	789.9 ± 4 J/K/mol
345.08 K, Liquid	791.3 ± 4 J/K/mol
346.91 K, Liquid	793.1 ± 4 J/K/mol
348.74 K, Liquid	794.8 ± 4 J/K/mol
350 K, Liquid	796 ± 4 J/K/mol
350.57 K, Liquid	796.5 ± 4 J/K/mol
352.4 K, Liquid	797.8 ± 4 J/K/mol
354.23 K, Liquid	799.5 ± 4 J/K/mol
356.06 K, Liquid	801.2 ± 4 J/K/mol
357.89 K, Liquid	802.8 ± 4 J/K/mol
359.72 K, Liquid	804.3 ± 4 J/K/mol
360 K, Liquid	804.6 ± 4 J/K/mol
361.55 K, Liquid	806 ± 4 J/K/mol
363.37 K, Liquid	807.7 ± 4 J/K/mol
365.2 K, Liquid	809.1 ± 4 J/K/mol
367.03 K, Liquid	810.8 ± 4.1 J/K/mol
368.86 K, Liquid	812.7 ± 4.1 J/K/mol
370 K, Liquid	813.4 ± 4.1 J/K/mol
